{
  "source": "patent US20150209426A1",
  "about": "“TREATMENT OF CANCER” (Boehringer Ingelheim International GmbH, priority 2014, published 2015)",
  "key": {"MCF7aro cells": {"system": "MCF7aro cells", "experiment": "Cell proliferation assay of adherently growing MCF7aro breast cancer cells (AlamarBlue cell viability)", "format": "cell-based, human", "details": "6 days of incubation, mean of three independent experiments, everolimus up to 50 nM, exemestane up to 200 nM, triple combination with fixed 10 nM IGF Ab 60833", "method": "Three independent experiments were conducted to determine the anti-proliferative effect of IGF Ab 60833 in combination with everolimus and exemestane in MCF7aro breast cancer cells. Cell proliferation and viability following 6 days of incubation with test compounds was determined using an assay that monitors the reducing environment of the living cells in each assay well.\nFor cell proliferation assays and Western Blot analysis the cells were steroid-deprived for 72 h by cultivation in starvation medium (MEM alpha without phenol red, supplemented with 10% charcoal stripped FBS, 2 mM GlutaMAX and 1 mM sodium pyruvate). […]\nThe final concentration of the solvent DMSO in the test wells was 0.1%. Everolimus and exemestane were tested at 5 concentrations, each measured in duplicate wells, as single agents or in combination.\nAfter 2 days of incubation with test compounds in a humidified incubator at 37° C. and 5% CO2, medium was changed to fresh assay medium and compounds were added again. […] Total fluorescence intensity of each well was then measured in a Wallac VICTOR Multilabel Counter using an excitation wavelength of 544 nm and measuring emission at 590 nm.\nAt the time of test compound addition, “time zero” (t=0) untreated cell plates were stained with AlamarBlue® Cell Viability Reagent. […] After incubation for 6 hours at 37° C. and 5% CO2, total fluorescence intensity was measured. […]"}, "[1]": {"system": "cleaved PARP in MCF7aro cells", "experiment": "Cleaved PARP (apoptosis) in MCF7aro cell lysates by Western blot and MSD Apoptosis Panel", "format": "cell-based, human", "details": "72 h, 1 μM of each agent, versus vehicle-treated control", "method": "1.5×10^6 MCF7aro cells were plated in 10 cm dishes in starvation medium (MEM alpha without phenol red, supplemented with 10% charcoal stripped FBS, 2 mM GlutaMAX and 1 mM sodium pyruvate). After overnight incubation, medium was changed to assay medium (MEM alpha without phenol red, supplemented with 10% charcoal stripped FBS, 2 mM GlutaMAX, 1 mM sodium pyruvate and 1 nM androstenedione) and the cells were treated with vehicle (DMSO), or 1 μM of IGF Ab 60833, or 1 μM exemestane, or 1 μM everolimus, or a combination of exemestane and everolimus, or a combination of all three inhibitors. At 72 h post treatment, the cells were lysed on ice with MSD Tris Lysis Buffer containing 20 mM Tris pH 7.5, 150 mM NaCl, 1 mM EDTA, 1 mM EGTA, 1% Triton X-100, completed with protease and phosphatase inhibitor cocktails. Prior to use, freshly prepared 2 mM PMSF was added to the buffer.\n(§1) Total protein was isolated and protein concentration was quantified by Bradford protein assay according to the manufacturer's instructions. […]\nCells lysates were prepared according to the Meso Scale Discovery cell lysis protocol. 20 μg of clarified lysate was analyzed in duplicates with MSD Apoptosis Panel Whole Cell Lysate Kit, measuring cleaved PARP signals, according to the manufacturer's instructions. Plates were read on the SECTOR Imager 6000 plate reader."}, "[2]": {"system": "AKT and S6 phosphorylation in MCF7aro cells", "experiment": "Western blot assessment of AKT and S6 phosphorylation status in MCF7aro cell lysates", "format": "cell-based, human", "details": "24 hours, 100 nM IGF Ab 60833, 0.32 nM everolimus, versus vehicle (DMSO) control", "method": "1.8×10^6 MCF7aro cells were plated in 10 cm dishes in starvation medium (MEM alpha without phenol red, supplemented with 10% charcoal stripped FBS, 2 mM GlutaMAX and […]). After overnight incubation, medium was changed to assay medium (MEM alpha without phenol red, supplemented with 10% charcoal stripped FBS, 2 mM GlutaMAX, 1 mM sodium pyruvate and 1 nM androstenedione) and the cells were treated with 100 nM of IGF Ab 60833 or 0.32 nM of everolimus or a combination of antibody and mTORC1 inhibitor. As a control, cells were treated with vehicle (DMSO) only. At 24 h post treatment, the cells were lysed on ice with MSD Tris Lysis Buffer containing 20 mM Tris pH 7.5, 150 mM NaCl, 1 mM EDTA, 1 mM EGTA, 1% Triton X-100, completed with protease and phosphatase inhibitor cocktails. Prior to use, freshly prepared 2 mM PMSF was added to the buffer.\nas §1\nThe effect of IGF Ab 60833 and everolimus, as single agents and in combination, on the phosphorylation of AKT at serine 473 (pAKT S473) and threonine 308 (pAKT T308), and of S6 (pS6) at serine 235/236 was monitored by Western blot analysis of MCF7aro cell lysates prepared 24 hours post treatment."}, "[3]": {"system": "advanced hormone receptor-positive, HER2-negative breast cancer", "details": "cited from earlier work"}, "[4]": {"system": "hormone refractory, hormone receptor-positive, HER2-negative metastatic breast cancer", "details": "hormone refractory HR+, HER2-negative metastatic breast cancer patients; cited from earlier work"}},
  "data": [
    {"compound": "CO[C@H]1C[C@@H]2CC[C@@H](C)[C@@](O)(O2)C(=O)C(=O)N2CCCC[C@H]2C(=O)O[C@H]([C@H](C)C[C@@H]2CC[C@@H](OCCO)[C@H](OC)C2)CC(=O)[C@H](C)/C=C(\\C)[C@@H](O)[C@@H](OC)C(=O)[C@H](C)C[C@H](C)/C=C/C=C/C=C/1C", "note": "[everolimus]", "values": [
      {"measurement": "maximal mean CGI (cell growth inhibition)", "setting": "MCF7aro cells", "result": 47, "unit": "%"},
      {"measurement": "levels of cleaved PARP (marker for apoptosis)", "setting": "[1]", "result": "comparable to or only marginally higher than the level in the vehicle-treated control"},
      {"measurement": "pAKT S473 and T308 levels by Western blot", "setting": "[2]", "result": "increased compared to the vehicle (DMSO)-treated control"},
      {"measurement": "pS6 (S235/236) signal by Western blot", "setting": "[2]", "result": "reduced pS6 signal"}
    ]},
    {"compound": "C=C1C[C@@H]2[C@H](CC[C@]3(C)C(=O)CC[C@@H]23)[C@@]2(C)C=CC(=O)C=C12", "note": "[exemestane, 6-Methylideneandrosta-1,4-diene-3,17-dione]", "values": [
      {"measurement": "maximal mean CGI (cell growth inhibition)", "setting": "MCF7aro cells", "result": 60, "unit": "%"},
      {"measurement": "levels of cleaved PARP (marker for apoptosis)", "setting": "[1]", "result": "comparable to or only marginally higher than the level in the vehicle-treated control"},
      {"measurement": "median progression-free survival", "setting": "[3]; by local investigator assessment", "result": 3.2, "unit": "months"},
      {"measurement": "overall response rate", "setting": "[3]; in vivo", "result": 1.7, "unit": "%"}
    ]},
    {"compound": "CC/C(=C(\\c1ccccc1)c1ccc(OCCN(C)C)cc1)c1ccccc1", "note": "[tamoxifen]", "values": [
      {"measurement": "time to progression (PFS)", "setting": "[4]", "result": 4.5, "unit": "months"}
    ]}
  ]
}
